Assay results from PubChem BioAssay AID256 (DTP/NCI, 2004).
Where “and” joins values, the source holds several entries; their conditions need not be identical. Equal values may be shown once. Inconclusive results and toxic doses are left out.

System: CD2F1 mice, L1210 leukemia ip, survival T/C
Assay: NCI In Vivo Anticancer Drug Screen. Data for tumor model L1210 Leukemia (intraperitoneal) in CD2F1 (CDF1) mice
Details: higher = longer survival
Method in brief: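 Activity against a transplanted murine tumor was judged by comparing the compound group with a vehicle group. The outcome in the treated animals was divided by that in the controls.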

[1] = endpoint: mean survival time, dose: 100.0 mg/kg/injection, schedule: Q01DX001 (ip), vehicle: saline
[2] = endpoint: mean survival time, dose: 200.0 mg/kg/injection, schedule: Q01DX001 (ip), vehicle: saline
[3] = endpoint: mean survival time, dose: 100.0 mg/kg/injection, schedule: Q01DX009 (ip), vehicle: saline with Tween-80
[4] = endpoint: mean survival time, dose: 100.0 mg/kg/injection, schedule: Q04DX003 (ip), vehicle: saline with Tween-80
[5] = endpoint: mean survival time, dose: 200.0 mg/kg/injection, schedule: Q01DX009 (ip), vehicle: saline with Tween-80
[6] = endpoint: mean survival time, dose: 200.0 mg/kg/injection, schedule: Q04DX003 (ip), vehicle: saline with Tween-80
[7] = endpoint: mean survival time, dose: 400.0 mg/kg/injection, schedule: Q01DX009 (ip), vehicle: saline with Tween-80
[8] = endpoint: mean survival time, dose: 400.0 mg/kg/injection, schedule: Q04DX003 (ip), vehicle: saline with Tween-80
[9] = endpoint: mean survival time, dose: 100.0 mg/kg/injection, schedule: Q04DX003 (ip), vehicle: saline
[10] = endpoint: mean survival time, dose: 200.0 mg/kg/injection, schedule: Q04DX003 (ip), vehicle: saline
[11] = endpoint: mean survival time, dose: 400.0 mg/kg/injection, schedule: Q01DX001 (ip), vehicle: saline
[12] = endpoint: mean survival time, dose: 400.0 mg/kg/injection, schedule: Q04DX003 (ip), vehicle: saline

For `O=C(NO)c1ccc(O)c(O)c1`, the T/C (endpoint: mean survival time, dose: 25.0 mg/kg/injection, schedule: Q01DX009 (ip), vehicle: water) was 115 % of control, the T/C (endpoint: mean survival time, dose: 164.71 mg/kg/injection, schedule: Q01DX009 (ip), vehicle: water) was 121 % of control and the T/C (endpoint: mean survival time, dose: 196.0 mg/kg/injection, schedule: Q01DX009 (ip), vehicle: water) was 152 % of control. The T/C (endpoint: mean survival time, dose: 200.0 mg/kg/injection, schedule: Q01DX009 (ip), vehicle: water) was 167 % of control, the T/C (endpoint: mean survival time, dose: 245.0 mg/kg/injection, schedule: Q01DX009 (ip), vehicle: water) was 168 % of control and the T/C (endpoint: mean survival time, dose: 307.0 mg/kg/injection, schedule: Q01DX009 (ip), vehicle: water) was 167 % of control. The T/C (endpoint: mean survival time, dose: 307.2 mg/kg/injection, schedule: Q01DX009 (ip), vehicle: water) was 176 % of control, the T/C (endpoint: mean survival time, dose: 336.14 mg/kg/injection, schedule: Q01DX009 (ip), vehicle: water) was 155 % of control and the T/C (endpoint: mean survival time, dose: 383.0 mg/kg/injection, schedule: Q01DX009 (ip), vehicle: water) was 185 % of control. For the same compound, the T/C (endpoint: mean survival time, dose: 384.0 mg/kg/injection, schedule: Q01DX009 (ip), vehicle: water) was 162 % of control, the T/C (endpoint: mean survival time, dose: 400.0 mg/kg/injection, schedule: Q01DX009 (ip), vehicle: water) was 167 % of control and the T/C (endpoint: mean survival time, dose: 480.0 mg/kg/injection, schedule: Q01DX009 (ip), vehicle: water) was 167 % of control and 206 % of control. For the same compound, the T/C (endpoint: mean survival time, dose: 480.2 mg/kg/injection, schedule: Q01DX009 (ip), vehicle: water) was 187 % of control, the T/C (endpoint: mean survival time, dose: 600.0 mg/kg/injection, schedule: Q01DX009 (ip), vehicle: water) was 154 % of control and 164 % of control and the T/C (endpoint: median survival time, dose: 18.75 mg/kg/injection, schedule: Q03HX024 (ip), vehicle: water) was 113 % of control. The T/C (endpoint: median survival time, dose: 22.5 mg/kg/injection, schedule: Q03HX024 (ip), vehicle: water) was 109 % of control, the T/C (endpoint: median survival time, dose: 37.5 mg/kg/injection, schedule: Q03HX024 (ip), vehicle: water) was 124 % of control and the T/C (endpoint: median survival time, dose: 45.0 mg/kg/injection, schedule: Q03HX024 (ip), vehicle: water) was 119 % of control. The T/C (endpoint: median survival time, dose: 50.0 mg/kg/injection, schedule: Q01DX009 (ip), vehicle: water) was 117 % of control, the T/C (endpoint: median survival time, dose: 100.0 mg/kg/injection, schedule: Q01DX009 (ip), vehicle: water) was 124 % of control and the T/C (endpoint: median survival time, dose: 120.0 mg/kg/injection, schedule: Q01DX009 (ip), vehicle: water) was 122 % of control. For the same compound, the T/C (endpoint: median survival time, dose: 180.0 mg/kg/injection, schedule: Q03HX024 (ip), vehicle: water) was 214 % of control, the T/C (endpoint: median survival time, dose: 225.0 mg/kg/injection, schedule: Q03HX024 (ip), vehicle: water) was 273 % of control and the T/C (endpoint: median survival time, dose: 240.0 mg/kg/injection, schedule: Q01DX009 (ip), vehicle: water) was 154 % of control. The T/C (endpoint: median survival time, dose: 268.0 mg/kg/injection, schedule: Q01DX009 (ip), vehicle: water) was 160 % of control, the T/C (endpoint: median survival time, dose: 270.0 mg/kg/injection, schedule: Q03HX024 (ip), vehicle: water) was 238 % of control and the T/C (endpoint: median survival time, dose: 400.0 mg/kg/injection, schedule: Q01DX009 (ip), vehicle: water) was 162 % of control and 163 % of control. The T/C (endpoint: median survival time, dose: 480.0 mg/kg/injection, schedule: Q01DX009 (ip), vehicle: water) was 178 % of control, the T/C (endpoint: median survival time, dose: 600.0 mg/kg/injection, schedule: Q01DX009 (ip), vehicle: water) was 95 % of control and the T/C (endpoint: median survival time, dose: 720.0 mg/kg/injection, schedule: Q01DX009 (ip), vehicle: water) was 170 % of control.

For `O=C(O)C1CC1`, the T/C [1] was 96 % of control and the T/C [2] was 108 % of control.

`O=C1NC(=O)c2ccccc21` was tested, and the T/C (endpoint: mean survival time, dose: 100.0 mg/kg/injection, schedule: Q01DX009 (ip), vehicle: Klucel (hydroxypropylcellulose) (HPC)) was 102 % of control, the T/C (endpoint: mean survival time, dose: 200.0 mg/kg/injection, schedule: Q01DX009 (ip), vehicle: Klucel (hydroxypropylcellulose) (HPC)) was 106 % of control and the T/C (endpoint: mean survival time, dose: 400.0 mg/kg/injection, schedule: Q01DX009 (ip), vehicle: Klucel (hydroxypropylcellulose) (HPC)) was 101 % of control.

`Cc1ccc(S(=O)(=O)N=N/C=C2/C=CC=CN2O)cc1` was tested, and the T/C (endpoint: mean survival time, dose: 20.0 mg/kg/injection, schedule: Q01DX009 (ip), vehicle: Klucel (hydroxypropylcellulose) (HPC)) was 105 % of control, the T/C (endpoint: mean survival time, dose: 40.0 mg/kg/injection, schedule: Q01DX009 (ip), vehicle: Klucel (hydroxypropylcellulose) (HPC)) was 108 % of control and the T/C (endpoint: mean survival time, dose: 45.0 mg/kg/injection, schedule: Q01DX009 (ip), vehicle: Klucel (hydroxypropylcellulose) (HPC)) was 114 % of control. The T/C (endpoint: mean survival time, dose: 87.5 mg/kg/injection, schedule: Q01DX009 (ip), vehicle: Klucel (hydroxypropylcellulose) (HPC)) was 121 % of control.

`Cc1ccc(Cl)cc1NS(=O)(=O)c1ccccc1` was tested, and the T/C [3] was 94 % of control, the T/C [4] was 100 % of control and the T/C [5] was 96 % of control. For the same compound, the T/C [6] was 105 % of control, the T/C [7] was 94 % of control and the T/C [8] was 105 % of control.

For `COC1=C(C#N)CC2(C)C(CCC3C2CCC2(C)C(C(C)CCCC(C)C)CCC32)C1` (configuration not stated), the T/C (endpoint: mean survival time, dose: 100.0 mg/kg/injection, schedule: Q04DX003 (ip), vehicle: saline sonified) was 92 % of control, the T/C (endpoint: mean survival time, dose: 200.0 mg/kg/injection, schedule: Q04DX003 (ip), vehicle: saline sonified) was 93 % of control and the T/C (endpoint: mean survival time, dose: 400.0 mg/kg/injection, schedule: Q04DX003 (ip), vehicle: saline sonified) was 92 % of control.

`COC1OC(COC(=O)c2ccc([N+](=O)[O-])cc2)C(SC#N)C1O` (configuration not stated) was tested, and the T/C (endpoint: mean survival time, dose: 150.0 mg/kg/injection, schedule: Q01DX001 (ip), vehicle: saline) was 93 % of control.

`O=C(O)c1ccccc1N=Cc1ccccc1O` was tested, and the T/C [3] was 96 % of control, the T/C [4] was 103 % of control and the T/C [5] was 96 % of control. The T/C [6] was 113 % of control, the T/C [7] was 102 % of control and the T/C [8] was 105 % of control.

For `CCOC(=O)c1ccc(NS(=O)c2ccccc2)cc1` (configuration not stated), the T/C [1] was 95 % of control, the T/C [9] was 109 % of control and the T/C [2] was 95 % of control. The T/C [10] was 108 % of control, the T/C [11] was 94 % of control and the T/C [12] was 103 % of control.

For `CCOC(=O)/C(C)=C(/N)c1ccccc1`, the T/C [4] was 98 % of control, the T/C [6] was 95 % of control and the T/C [8] was 92 % of control.

`CCCCCC(C)C(C)=O` (configuration not stated) was tested, and the T/C [3] was 101 % of control, the T/C [5] was 106 % of control and the T/C [7] was 92 % of control.

For `O=C1OC(C(O)CO)C(O)=C1O` (configuration not stated), the T/C [1] was 101 % of control, the T/C (endpoint: mean survival time, dose: 100.0 mg/kg/injection, schedule: Q01DX009 (ip), vehicle: saline) was 93 % of control and 108 % of control and the T/C (endpoint: mean survival time, dose: 100.0 mg/kg/injection, schedule: Q04DX002 (ip), vehicle: saline) was 109 % of control and 112 % of control. The T/C [9] was 106 % of control, the T/C [2] was 101 % of control and the T/C (endpoint: mean survival time, dose: 200.0 mg/kg/injection, schedule: Q01DX009 (ip), vehicle: saline) was 86 % of control and 102 % of control. The T/C (endpoint: mean survival time, dose: 200.0 mg/kg/injection, schedule: Q04DX002 (ip), vehicle: saline) was 97 % of control and 104 % of control, the T/C [10] was 98 % of control and the T/C [11] was 106 % of control. For the same compound, the T/C (endpoint: mean survival time, dose: 400.0 mg/kg/injection, schedule: Q01DX009 (ip), vehicle: saline) was 89 % of control and 96 % of control, the T/C (endpoint: mean survival time, dose: 400.0 mg/kg/injection, schedule: Q04DX002 (ip), vehicle: saline) was 96 % of control and 102 % of control and the T/C [12] was 98 % of control.

`CC(C)(C)CC(C)(C)C1=CC(=O)C(C(C)(C)CC(C)(C)C)=CC1=O` was tested, and the T/C (endpoint: mean survival time, dose: 100.0 mg/kg/injection, schedule: Q01DX001 (ip), vehicle: saline with Tween-80) was 91 % of control, the T/C (endpoint: mean survival time, dose: 200.0 mg/kg/injection, schedule: Q01DX001 (ip), vehicle: saline with Tween-80) was 90 % of control and the T/C (endpoint: mean survival time, dose: 400.0 mg/kg/injection, schedule: Q01DX001 (ip), vehicle: saline with Tween-80) was 86 % of control.
